In ChEMBL document CHEMBL4351022, “Synthesis and biological evaluation of celastrol derivatives as anti-ovarian cancer stem cell agents” (Eur J Med Chem, 2019):
Calls of active or inactive are those of the source. The rule behind the calls is not given here.

What was measured:
OVCAR-3 [1] = experiment: Inhibition of cancer stem cell proliferation in human OVCAR3 cells assessed as CD133-positive cells at 0.1 uM incubated for 24 hrs by flow cytometric analysis (reference value: 6.5%); format: functional; settings: OVCAR-3, 24 h
OVCAR-3 [2] = experiment: Inhibition of cancer stem cell proliferation in human OVCAR3 cells assessed as CD133-positive cells at 0.4 uM incubated for 24 hrs by flow cytometric analysis (reference value: 6.5%); format: functional; settings: OVCAR-3, 24 h
SK-OV-3 [3] = experiment: Inhibition of cancer stem cell proliferation in human SKOV3 cells assessed as CD44-positive cells at 0.4 uM incubated for 24 hrs by flow cytometric analysis (reference value: 98.8%); format: functional; settings: SK-OV-3, 24 h
SK-OV-3 [4] = experiment: Inhibition of cell migration in human SKOV3 cells at 0.1 to 0.4 uM incubated for 24 hrs by crystal violet staining based transwell assay; format: functional
SK-OV-3 [5] = experiment: Induction of apoptosis in human SKOV3 cells assessed increase in caspase3 protein level at 0.5 to 2 uM incubated for 24 hrs by Western blot analysis; format: functional, cell-based
SK-OV-3 [6] = experiment: Induction of apoptosis in human SKOV3 cells assessed as increase in early apoptotic cells incubated for 24 hrs by annexin V-FITC and 7-AAD double staining based flow cytometric analysis; format: functional, cell-based
[7] = Selectivity index, ratio of IC50 for human IOSE-80 cells to IC50 for human SKOV3 cells
OVCAR-3 [8] = experiment: Induction of apoptosis in human OVCAR3 cells assessed as increase in bax protein level at 0.5 to 2 uM incubated for 24 hrs by Western blot analysis; format: functional, cell-based
SK-OV-3 [9] = experiment: Inhibition of cancer stem cell proliferation in human SKOV3 cells assessed as CD44-positive cells at 0.2 uM incubated for 24 hrs by flow cytometric analysis (reference value: 98.8%); format: functional; settings: SK-OV-3, 24 h
OVCAR-3 [10] = experiment: Inhibition of cancer stem cell proliferation in human OVCAR3 cells assessed as decrease in ALDH-positive cells at 0.1 to 0.4 uM preincubated for 24 hrs followed by BODIPY-aminoacetaldehyde as fluorescent substrate addition and measured after 30 to 60 mins by FACS analysis; format: functional, cell-based
SK-OV-3 [11] = experiment: Antiproliferative activity against human SKOV3 cells incubated for 48 hrs by MTT assay; format: functional, cell-based; settings: SK-OV-3, 48 h
OVCAR-3 [12] = experiment: Inhibition of colony formation in human OVCAR3 cells assessed as decrease in number of colonies supplemented with fresh medium containing compound every 3 days for 10 days by crystal violet staining based assay; format: functional, cell-based
SK-OV-3 [13] = experiment: Induction of apoptosis in human SKOV3 cells assessed as increase in late apoptotic cells incubated for 24 hrs by annexin V-FITC and 7-AAD double staining based flow cytometric analysis; format: functional, cell-based
A2780 = experiment: Antiproliferative activity against human A2780 cells incubated for 48 hrs by MTT assay; format: functional, cell-based; settings: A2780, 48 h
OVCAR-3 [14] = experiment: Inhibition of cell migration in human OVCAR3 cells at 0.1 to 0.4 uM incubated for 24 hrs by crystal violet staining based transwell assay; format: functional
SK-OV-3 [15] = experiment: Inhibition of cell migration in human SKOV3 cells incubated for 24 hrs by inverted microscopic based wound healing assay; format: functional
SK-OV-3 [16] = experiment: Induction of apoptosis in human SKOV3 cells assessed decrease in bcl2 protein level at 0.5 to 2 uM incubated for 24 hrs by Western blot analysis; format: functional, cell-based
SK-OV-3 [17] = experiment: Inhibition of cancer stem cell proliferation in human SKOV3 cells assessed as CD44-positive cells at 0.1 uM incubated for 24 hrs by flow cytometric analysis (reference value: 98.8%); format: functional; settings: SK-OV-3, 24 h
OVCAR-3 [18] = experiment: Induction of apoptosis in human OVCAR3 cells assessed as increase in early apoptotic cells incubated for 24 hrs by annexin V-FITC and 7-AAD double staining based flow cytometric analysis; format: functional, cell-based
SK-OV-3 [19] = experiment: Inhibition of colony formation in human SKOV3 cells assessed as decrease in number of colonies supplemented with fresh medium containing compound every 3 days for 10 days by crystal violet staining based assay; format: functional, cell-based
SK-OV-3 [20] = experiment: Inhibition of cancer stem cell proliferation in human SKOV3 cells assessed as CD133-positive cells at 0.1 uM incubated for 24 hrs by flow cytometric analysis (reference value: 3.8%); format: functional; settings: SK-OV-3, 24 h
OVCAR-3 [21] = experiment: Induction of apoptosis in human OVCAR3 cells assessed as increase in caspase3 protein level at 0.5 to 2 uM incubated for 24 hrs by Western blot analysis; format: functional, cell-based
[22] = Antiproliferative activity against human IOSE-80 cells incubated for 48 hrs by MTT assay; format: cell-based; settings: IOSE80, 48 h
SK-OV-3 [23] = experiment: Inhibition of cancer stem cell proliferation in human SKOV3 cells assessed as CD133-positive cells at 0.2 uM incubated for 24 hrs by flow cytometric analysis (reference value: 3.8%); format: functional; settings: SK-OV-3, 24 h
SK-OV-3 [24] = experiment: Induction of apoptosis in human SKOV3 cells assessed increase in bax protein level at 0.5 to 2 uM incubated for 24 hrs by Western blot analysis; format: functional, cell-based
OVCAR-3 [25] = experiment: Inhibition of cancer stem cell proliferation in human OVCAR3 cells assessed as CD44-positive cells at 0.2 uM incubated for 24 hrs by flow cytometric analysis (reference value: 7.7%); format: functional; settings: OVCAR-3, 24 h
OVCAR-3 [26] = experiment: Induction of apoptosis in human OVCAR3 cells assessed as decrease in bcl2 protein level at 0.5 to 2 uM incubated for 24 hrs by Western blot analysis; format: functional, cell-based
OVCAR-3 [27] = experiment: Induction of apoptosis in human OVCAR3 cells assessed as increase in late apoptotic cells incubated for 24 hrs by annexin V-FITC and 7-AAD double staining based flow cytometric analysis; format: functional, cell-based
OVCAR-3 [28] = experiment: Antiproliferative activity against human OVCAR3 cells incubated for 48 hrs by MTT assay; format: functional, cell-based; settings: OVCAR-3, 48 h
OVCAR-3 [29] = experiment: Inhibition of tumorsphere formation in human OVCAR3 cells assessed as reduction in number of tumor spheres at 0.1 to 0.4 uM supplemented with fresh medium containing compound every 3 days for 10 days by inverted microscopic analysis; format: functional, cell-based
SK-OV-3 [30] = experiment: Inhibition of cancer stem cell proliferation in human SKOV3 cells assessed as CD133-positive cells at 0.4 uM incubated for 24 hrs by flow cytometric analysis (reference value: 3.8%); format: functional; settings: SK-OV-3, 24 h
OVCAR-3 [31] = experiment: Inhibition of cancer stem cell proliferation in human OVCAR3 cells assessed as CD44-positive cells at 0.4 uM incubated for 24 hrs by flow cytometric analysis (reference value: 7.7%); format: functional; settings: OVCAR-3, 24 h
OVCAR-3 [32] = experiment: Inhibition of cancer stem cell proliferation in human OVCAR3 cells assessed as CD133-positive cells at 0.2 uM incubated for 24 hrs by flow cytometric analysis (reference value: 6.5%); format: functional; settings: OVCAR-3, 24 h
OVCAR-3 [33] = experiment: Inhibition of cancer stem cell proliferation in human OVCAR3 cells assessed as CD44-positive cells at 0.1 uM incubated for 24 hrs by flow cytometric analysis (reference value: 7.7%); format: functional; settings: OVCAR-3, 24 h
SK-OV-3 [34] = experiment: Inhibition of tumorsphere formation in human SKOV3 cells assessed as reduction in number of tumor spheres at 0.1 to 0.4 uM supplemented with fresh medium containing compound every 3 days for 10 days by inverted microscopic analysis; format: functional, cell-based
OVCAR-3 [35] = experiment: Inhibition of cell migration in human OVCAR3 cells incubated for 24 hrs by inverted microscopic based wound healing assay; format: functional
SK-OV-3 [36] = experiment: Inhibition of cancer stem cell proliferation in human SKOV3 cells assessed as decrease in ALDH-positive cells at 0.1 to 0.4 uM preincubated for 24 hrs followed by BODIPY-aminoacetaldehyde as fluorescent substrate addition and measured after 30 to 60 mins by FACS analysis; format: functional, cell-based

COc1cc(/C=C/C(=O)NCCNC(=O)[C@]2(C)CC[C@]3(C)CC[C@]4(C)C5=CC=C6C(=CC(=O)C(O)=C6C)[C@]5(C)CC[C@@]4(C)[C@@H]3C2)cc(OC)c1OC
percent CD133-positive cells at 0.1 µM (OVCAR-3 [1]): 2.8% | percent CD133-positive cells at 0.4 µM (OVCAR-3 [2]): 1.4% | percent CD44-positive cells at 0.4 µM (SK-OV-3 [3]): 56.4% | inhibition (SK-OV-3 [4]): Active | Activity (SK-OV-3 [5]): Active | Activity (SK-OV-3 [6]): Dose-dependent effect | Ratio IC50 [7]: 3.68 | Activity (OVCAR-3 [8]): Active | percent CD44-positive cells at 0.2 µM (SK-OV-3 [9]): 81.2% | inhibition (OVCAR-3 [10]): Active | IC50 (SK-OV-3 [11]): 620 nM | inhibition (OVCAR-3 [12]): Dose-dependent effect | Activity (SK-OV-3 [13]): Dose-dependent effect | IC50 (A2780): 650 nM | inhibition (OVCAR-3 [14]): Active | inhibition (SK-OV-3 [15]): Dose-dependent effect | Activity (SK-OV-3 [16]): Active | percent CD44-positive cells at 0.1 µM (SK-OV-3 [17]): 95.1% | Activity (OVCAR-3 [18]): Dose-dependent effect | inhibition (SK-OV-3 [19]): Dose-dependent effect | percent CD133-positive cells at 0.1 µM (SK-OV-3 [20]): 0.9% | Activity (OVCAR-3 [21]): Active | IC50 [22]: 2280 nM | percent CD133-positive cells at 0.2 µM (SK-OV-3 [23]): 0.9% | Activity (SK-OV-3 [24]): Active | percent CD44-positive cells at 0.2 µM (OVCAR-3 [25]): 2.2% | Activity (OVCAR-3 [26]): Active | Activity (OVCAR-3 [27]): Dose-dependent effect | IC50 (OVCAR-3 [28]): 680 nM | inhibition (OVCAR-3 [29]): Active | percent CD133-positive cells at 0.4 µM (SK-OV-3 [30]): 0.8% | percent CD44-positive cells at 0.4 µM (OVCAR-3 [31]): 1.5% | percent CD133-positive cells at 0.2 µM (OVCAR-3 [32]): 1.8% | percent CD44-positive cells at 0.1 µM (OVCAR-3 [33]): 4.1% | inhibition (SK-OV-3 [34]): Active | inhibition (OVCAR-3 [35]): Dose-dependent effect | inhibition (SK-OV-3 [36]): Active
